Assay results: US20120157464A1, “USE OF AZABICYCLOALKYL DERIVATIVES OR PYRROLIDINE-2-ONE DERIVATIVES FOR THE TREATMENT OR PREVENTION OF ATAXIA” (NOVARTIS AG, priority 2009, published 2012)

Assays:
human α7-nAChR = biological target: T1, human α7-nAChR (Homo sapiens, UniProt P36544); experiment: functional calcium (FLIPR) assay in GH3 cells recombinantly expressing human α7-nAChR; type: cell-based; conditions: for EC50: GH3 cells expressing human α7-nAChR, calcium FLIPR, read-out: α7-nAChR activity Potency EC50
T1 construct: expressed in transfected cells; host or cells: GH3 cells
T1 sequence (P36544 23-502): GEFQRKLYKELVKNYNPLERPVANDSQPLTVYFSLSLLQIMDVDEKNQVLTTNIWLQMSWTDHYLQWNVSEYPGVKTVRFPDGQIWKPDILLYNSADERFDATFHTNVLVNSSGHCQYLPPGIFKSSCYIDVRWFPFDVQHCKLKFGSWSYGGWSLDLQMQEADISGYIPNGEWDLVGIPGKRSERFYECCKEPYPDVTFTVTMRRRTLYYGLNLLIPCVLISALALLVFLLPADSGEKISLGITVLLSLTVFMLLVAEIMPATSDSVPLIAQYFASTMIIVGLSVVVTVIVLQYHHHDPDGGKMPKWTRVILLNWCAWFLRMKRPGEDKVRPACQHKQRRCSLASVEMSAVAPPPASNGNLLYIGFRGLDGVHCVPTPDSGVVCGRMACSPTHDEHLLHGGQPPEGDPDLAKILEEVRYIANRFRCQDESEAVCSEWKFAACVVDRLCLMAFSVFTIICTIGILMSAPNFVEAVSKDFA
Description: Assay. To assess a7-nAChR activity, a functional assay was employed using GH3 cells that recombinantly expressed human α7-nAChR, 5×10^4 cells per well were seeded 72 h prior to the experiment on black 96-well plates (Costar) and incubated at 37° C. in a humidified atmosphere (5% CO2/95% air). On the day of the experiment, medium was removed by flicking the plates and replaced with 100 μl growth medium containing […] Fluo-4, (Molecular Probes) in the presence of 2.5 mM probenecid (Sigma). The cells were incubated at 37° C. in a humidified atmosphere (5% CO2/95% air) for 1 h. Plates were flicked to remove excess of Fluo-4, washed twice with Hepes-buffered salt solution (in mM: NaCl 130, KCl 5.4 CaCl2 2, MgSO4 0.8, NaH2PO4 0.9, glucose 25, Hepes 20, pH 7.4; HBS) and refilled with 100 μl of HBS containing antagonist when appropriate. The incubation in the presence of the antagonist lasted 3-5 minutes. Plates were placed in the cell plate stage of a FLIPR device (fluorescent imaging plate reader, Molecular Devices, Sunnyvale, Calif., USA).
After recording of the baseline (laser: excitation 488 nm at 1 W, CCD camera opening of 0.4 seconds) the agonists (50 μl) were added to the cell plate using the FLIPR 96-tip pipettor while simultaneously recording the fluorescence, Calcium kinetic data were normalized to the maximal fitted response induced by epibatidine, which is a full agonist at α7-nAChR, Four parameter Hill equations were fitted to the concentration-response. Values of Emax (maximal effect in % compared to the epibatidine response) and EC50 (concentration producing half the maximal effect in μM) were derived from this fit.
(§1) Assay described in: D Feuerbach et al, Neuropharmacology (2005), 48, 215-227. To assess the activity of the compound of the invention on the human neuronal nAChR α4β2, a similar functional assay is carried out using a human epithelial cell line stably expressing the human α4β2 subtype (Michelmore et al., Naunyn-Schmiedeberg's Arch. Pharmacol. (2002) 366, 235),

[1] = biological target: T2, human neuronal nAChR α4β2 (Homo sapiens, UniProt P17787+P43681); experiment: similar functional assay in a human epithelial cell line stably expressing the human α4β2 subtype; type: cell-based
T2 construct: expressed in transfected cells
T2 sequence (P43681 29-627 limits assumed): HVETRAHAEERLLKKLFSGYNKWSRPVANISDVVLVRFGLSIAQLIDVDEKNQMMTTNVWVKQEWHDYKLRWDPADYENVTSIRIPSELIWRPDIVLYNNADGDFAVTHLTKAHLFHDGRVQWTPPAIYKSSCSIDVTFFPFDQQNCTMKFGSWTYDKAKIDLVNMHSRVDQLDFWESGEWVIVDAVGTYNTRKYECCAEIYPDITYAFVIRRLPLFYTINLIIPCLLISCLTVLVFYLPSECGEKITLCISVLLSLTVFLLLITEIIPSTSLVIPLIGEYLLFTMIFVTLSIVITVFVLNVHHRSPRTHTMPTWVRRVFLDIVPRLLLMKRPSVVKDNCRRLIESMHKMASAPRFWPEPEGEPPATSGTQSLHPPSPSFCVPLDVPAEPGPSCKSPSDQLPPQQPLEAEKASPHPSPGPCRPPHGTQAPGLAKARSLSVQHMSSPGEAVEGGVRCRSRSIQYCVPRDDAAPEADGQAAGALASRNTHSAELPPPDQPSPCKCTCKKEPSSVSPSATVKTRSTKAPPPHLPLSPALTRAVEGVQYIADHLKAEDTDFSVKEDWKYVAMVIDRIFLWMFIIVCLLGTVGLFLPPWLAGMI
T2 sequence (P17787 26-502): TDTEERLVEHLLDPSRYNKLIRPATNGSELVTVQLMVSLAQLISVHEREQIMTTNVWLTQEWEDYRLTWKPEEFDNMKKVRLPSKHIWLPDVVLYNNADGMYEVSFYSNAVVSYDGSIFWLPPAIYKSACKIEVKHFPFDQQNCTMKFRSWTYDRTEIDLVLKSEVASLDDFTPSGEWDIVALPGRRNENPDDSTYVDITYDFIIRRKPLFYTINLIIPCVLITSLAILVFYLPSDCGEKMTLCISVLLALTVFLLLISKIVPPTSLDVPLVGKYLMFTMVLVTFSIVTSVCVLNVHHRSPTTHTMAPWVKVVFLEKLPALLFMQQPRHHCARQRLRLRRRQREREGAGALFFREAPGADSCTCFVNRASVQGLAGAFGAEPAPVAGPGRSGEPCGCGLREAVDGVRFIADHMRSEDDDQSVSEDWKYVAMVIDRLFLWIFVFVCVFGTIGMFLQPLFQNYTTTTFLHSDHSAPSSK
Description: as §1

[2] = Oral bioavailability and brain penetration in mice; type: in vivo; conditions: 30 μmol/kg p.o.; for concentration at 0.25 h / concentration at 0.5 h / concentration at 1 h / concentration at 2 h / concentration at 4 h / concentration at 8 h: plasma
Description: Assay: Compounds were orally (30 μmol/kg) administered. Male mice (30-35 g, OF1/ICstrain) were sacrificed at indicated time points after oral administration. Trunk-blood was collected in EDTA-containing tubes and the brain was removed and immediately frozen on dry ice. To 100 μl plasma 10 μl internal standard (1.0 μmol of a compound with solubility and ionization properties similar to test compounds) was added and extracted three times with 500 μl dichloromethane. The combined extracts were then dried under a stream of nitrogen and re-dissolved in 100 μl acetonitrile/water (70% acetonitrile). Brains were weighed and homogenized in water (1:5 w/v). Two 100 μl aliquots of each homogenate 4-10 μl of internal standard (same standard as used for the plasma samples) were extracted three times with 500 μl dichlorornethane and further processed as the plasma samples. Samples were separated on Beckmann high-performance liquid chromatography equipment system with an autosampler (Gilson 233XL).
The limit of detection (LOD), defined as the lowest concentration of the extracted standard sample with a signal to noise ratio of ˜3.

FRDA = conditions: cited from earlier work
mice = experiment: Social Recognition Test in mice; type: in vivo; conditions: oral, familiar partner at 24 h vs time 0
Description: Assay: Social interactions between two experimental animals are influenced by their degree of familiarity: the better they know each other, the less time they spend on mutual scrutiny at each meeting. […] Memory enhancing agents (i.e. oxiracetam) facilitate learning to the extent that the previously met (familiar) partner is still remembered after 24 h, whereas in vehicle treated control animals the memory usually fades after less than 1 hour (Thor and Holloway, 1982) or after 2-3 hours.
Baseline-test: Pairs consisting of one adult and one young mouse were assigned at random to the experimental and control groups. In each pair only the adult mouse was orally treated 1 hour before the trial with either vehicle or the test compound. The duration of active contacts of the adult mouse with the young mouse was manually recorded over a period of 3 min, including the following behavioural, approach-related items: sniffing, nosing, grooming, licking, pawing and playing, anogenital exploration and orientation toward the young mouse; orientation, thereby, was defined as tip of nose of the adult mouse less than approximately 1 cm distant from the young mouse's body. […]

patients with FRDA = conditions: two patients with FRDA, varenicline p.o. 0.5 mg/kg per day; cited from earlier work
patients with SCA3/SCA14 = conditions: two patients with SCA3/SCA14, varenicline p.o. 0.5 mg/kg per day; cited from earlier work
[3] = clinical use in humans; cited from earlier work
[4] = male, OF1/IC, mouse, brain, po, 30 umol/kg, 0.25 hour, read-out: Ratio Brain/plasma
[5] = male, OF1/IC, mouse, brain, po, 30 umol/kg, 0.5 hour, read-out: Ratio Brain/plasma
[6] = male, OF1/IC, mouse, brain, po, 30 umol/kg, 1 hour, read-out: Ratio Brain/plasma
[7] = male, OF1/IC, mouse, brain, po, 30 umol/kg, 2 hour, read-out: Ratio Brain/plasma
[8] = male, OF1/IC, mouse, brain, po, 30 umol/kg, 4 hour, read-out: Ratio Brain/plasma
[9] = male, OF1/IC, mouse, brain, po, 30 umol/kg, 8 hour, read-out: Ratio Brain/plasma
[10] = male, OF1/IC, mouse, po, 0.25 hour
[11] = male, OF1/IC, mouse, po, 0.5 hour
[12] = male, OF1/IC, mouse, po, 1 hour
[13] = male, OF1/IC, mouse, po, 2 hour
[14] = male, OF1/IC, mouse, po, 4 hour
[15] = male, OF1/IC, mouse, po, 8 hour

Row | SMILES | EC50 (human α7-nAChR) | EC50 [1] | IC50 [1] | Brain ([2]; 0.25 hour) | Brain ([2]; 0.5 hour) | Brain ([2]; 1 hour) | Brain ([2]; 2 hour) | Brain ([2]; 4 hour) | Brain ([2]; 8 hour) | Kp at 0.25 h [2, 4] | Kp at 0.5 h [2, 5] | Kp at 1 h [2, 6] | Kp at 2 h [2, 7] | Kp at 4 h [2, 8] | Kp at 8 h [2, 9] | concentration at 0.25 h [2, 10] | concentration at 0.5 h [2, 11] | concentration at 1 h [2, 12] | concentration at 2 h [2, 13] | concentration at 4 h [2, 14] | further results
1 | c1cc2cc(-c3cnc(O[C@H]4CCN5CCC[C@@H]4C5)nc3)ccc2[nH]1 [Compound C-1, (4S,5R)-4-[5-(1H-indol-5-yl)-pyrimidin-2-yloxy]-1-aza-bicyclo[3.3.1]nonane] | 0.024 µM | > 100 µM | 9.33 µM | 620 ± 221 pmoles/g ± SD | 1405 ± 539 pmoles/g ± SD | 1458 ± 189 pmoles/g ± SD | 1478 ± 259 pmoles/g ± SD | 842 ± 187 pmoles/g ± SD | 362 ± 62 pmoles/g ± SD | 0.39 | 0.41 | 1.17 | 1.69 | 1.11 | 1.51 | 1600 ± 758 nM | 3410 ± 956 nM | 1240 ± 583 nM | 875 ± 261 nM | 762 ± 159 nM | concentration at 8 h [2, 15]: 239 ± 27 nM
2 | COC1=C(OC)C(=O)C(CCCCCCCCCCO)=C(C)C1=O [idebenone] |  |  |  |  |  |  |  |  |  |  |  |  |  |  |  |  |  |  |  |  | effects in clinical trials for FRDA (FRDA): showed effects in clinical trials
3 | C[C@H]1[C@H](Oc2ccc(-c3ccc4[nH]ccc4c3)nn2)C2CCN1CC2 [Compound B-13, (2S,3R)-3-[6-(1H-indol-5-yl)-pyridazin-3-yloxy]-2-methyl-1-aza-bicyclo[2.2.2]octane] | 0.013 µM | > 100 µM | 4.22 µM | 1884 ± 291 pmoles/g ± SD | 2960 ± 706 pmoles/g ± SD | 2940 ± 335 pmoles/g ± SD | 1260 ± 172 pmoles/g ± SD | 379 ± 134 pmoles/g ± SD | 93 ± 30 pmoles/g ± SD | 0.86 | 1.31 | 1.89 | 1.07 | 0.88 | 1.17 | 2200 ± 397 nM | 2260 ± 419 nM | 1550 ± 523 nM | 1170 ± 252 nM | 429 ± 167 nM | Brain ([2]; 24 hour): 13 ± 4 pmoles/g ± SD; concentration at 8 h [2, 15]: 80 ± 23 nM; Reduction in time scrutinizing in % ± SEM at 24 h (mice; dose 0.3 mg/kg): 37 ± 7 % ± SEM
4 | C[C@H](OC(=O)N[C@@H]1CN2CCC1CC2)c1ccccc1F [Compound A-1, (S)-(1-aza-bicyclo[2.2.2]oct-3-yl)-carbamic acid S-1-(2-fluoro-phenyl)ethylester] |  |  | 23.4 µM |  | 706.3 ± 153.4 pmoles/g ± SD | 573.7 ± 109.3 pmoles/g ± SD | 191.9 ± 34.9 pmoles/g ± SD | 104.6 ± 39.6 pmoles/g ± SD |  |  | 1.1 | 0.8 | 1.1 | 1.2 |  |  |  |  |  |  | α7-nAChR activity Efficacy compared to epibatidine (100%) (human α7-nAChR; Emax, maximal effect in % compared to the epibatidine response): 83%; Plasma ([2]; 0.5 hour): 634.9 ± 261.3 pmoles/ml ± SD; Plasma ([2]; 1 hour): 684.7 ± 339.6 pmoles/ml ± SD; Plasma ([2]; 2 hour): 168.2 ± 91.3 pmoles/ml ± SD; Plasma ([2]; 4 hour): 85.0 ± 54.3 pmoles/ml ± SD; Brain ([2]; 6 hour): 40.5 ± 12.1 pmoles/g ± SD; Plasma ([2]; 6 hour): 29.5 ± 13.8 pmoles/ml ± SD; Brain ([2]; 24 hour): 9.1 ± 2.7 pmoles/g ± SD; Plasma ([2]; 24 hour): 3.8 ± 0.6 pmoles/ml ± SD; Kp at 6 h ([2]; male, OF1/IC, mouse, brain, po, 30 umol/kg, 6 hour, read-out: Ratio Brain/plasma): 1.4; Kp at 24 h ([2]; male, OF1/IC, mouse, brain, po, 30 umol/kg, 24 hour, read-out: Ratio Brain/plasma): 2.4; Reduction in time scrutinizing in % ± SEM at 24 h (mice; dose 3 mg/kg): 52 ± 4 % ± SEM
5 | Cc1c(O)c(=O)ccn1C [deferiprone] |  |  |  |  |  |  |  |  |  |  |  |  |  |  |  |  |  |  |  |  | effects in clinical trials for FRDA (FRDA): showed effects in clinical trials
6 | c1cnc2cc3c(cc2n1)C1CNCC3C1 [varenicline, 7,8,9,10-tetrahydro-6,10-methano-6H-pyrazino-(2,3-h)(3)-benzazepine] |  |  |  |  |  |  |  |  |  |  |  |  |  |  |  |  |  |  |  |  | ataxia improvements in patients (patients with FRDA): showed improvements; ataxia improvements in patients (patients with SCA3/SCA14): showed improvements; adverse effects reported during clinical use [3]: nausea, sleep disturbance, constipation, vivid dreams, flatulence and vomiting
